# Measurements reported in patent US20180303901A1, “Notch1 Decoy Antagonists Protect From Obesity-Induced Insulin Resistance and Fatty Liver” (The Trustees of Columbia University in the City of New York, priority 2013, published 2018).
# “Also recorded” adds a separate entry of the source. Peptide text beside a SMILES is read from it. * marks the point of attachment. Cbz = O=C(OCc1ccccc1)*
# Legend:
# FAO hepatoma cells = assay: Western blots / gene expression in FAO hepatoma cells transduced with Fc or N1-IC; assay type: cell-based; settings: MG132 for 4-h
# From the text: FIG. 8A-FIG. 8F: Activation of hepatic Notch increases mTor, lipogenic genes, and steatosis in chow-fed mice. *p<0.05, **p<0.01, ***p<0.001 vs. Fc or GFP. Protein expression normalized to either Actin or Tubulin. Mice were 8-week-old C57Bl/6 males, unless otherwise indicated. […] FIG. 8D: Liver Western blots in mice transduced with GFP or N1-IC adenovirus, sacrificed after a 16-h fast followed by 2-h refeeding. (n=6/group). FIG. 8E: Gene expression analysis in mice transduced with GFP or N1-IC adenovirus, sacrificed after a 16-h fast followed by 2-h refeeding. (n=6/group). FIG. 8F: De novo lipogenesis in hepatocytes after transduction with GFP or N1-IC adenovirus and incubation with 10 nM insulin (triplicate wells, representative of 2 individual experiments). FIG. 8G: Hepatic triglyceride content 7-d after GFP or N1-IC transduction in 16-h fasted, 24-week-old, chow-fed Cre- and L-Rbpj mice. […] FIG. 8K-FIG. 8M: Quantitation of the phospho/total mTor, 4E-BP1 and S6k levels from the experiments in FIG. 8J. […]
# (§1) Notch1-IC, Notch decoy (1-24), Fc and GFP adenoviruses have been described (Kitamura 2007; Funahashi 2011; Nakae 2003). We transduced primary hepatocytes or HEK 293 ceils at MOI 5 and FAO hepatoma cells at MOI 200, to achieve 90-100% infection efficiency as assessed by GFP expression. […]
# N1-IC-transduced mice = assay: Rapamycin treatment of Fc or N1-IC-transduced mice; assay type: in vivo, mouse; settings: data not shown
# Description: FIG. 9A-FIG. 9F: mTor inhibition prevents Notch-induced fatty liver. Data shown means±SEM. FIG. 9A: Fasn-luciferase in FAO hepatoma cells transfected with either Raptor or scrambled (scr) shRNA, transduced with either Fc (−) or N1-IC (Notch) adenovirus and treated for 16-h with 100 nM insulin. ***p<0.001 vs. Fc control, &p<0.001 vs. scrambled shRNA, #p<0.001 vs. no insulin. […]
# Blood glucose was measured by glucose meter (OneTouch) and plasma insulin by ELISA (Millipore). […] Hepatic de novo lipogenesis was determined by measuring the amount of newly synthesized FA, as resolved by TLC, present in the liver 1 h after intraperitoneal injection of 1 mCi of 3H2O (Zhang 2006). Triglyceride secretion rate was measured after injection of Poloxamer 407, with serial measurement of plasma triglycerides (Li 2011).
# as §1
# primary hepatocytes = assay: Western blots of primary hepatocytes transfected with Raptor cDNA, transduced with Fc or Notch1, cycloheximide; assay type: cell-based, mouse; settings: cycloheximide for 2-h
# Description: FIG. 11A-FIG. 11H: Notch induces mTorc1 complex stability. FIG. 11A: Western blots of liver proteins from 5h-fasted L-Rbpj and control mice (mTor and Actin blots reproduced from FIG. 2n), FIG. 11B: Western blot of liver protein from chow-fed, 12-week-old mice transduced with Fc or N1-IC, sacrificed at day 7, after overnight fasting. FIG. 11C: Western blots from FAO hepatoma cells transduced with either Fc or N1-IC, with or without treatment with MG132 for 4-h. FIG. 11D: Western blots of primary hepatocytes, transfected with Raptor cDNA, then transduced with Fc or Notch1 and treated for 2-h with cycloheximide. […]
# We isolated and cultured primary mouse hepatocytes as described (Pajvani 2011). […] We measured fatty acid oxidation as described (Li 2011), with the following modifications: primary hepatocytes were incubated serum-free medium with 1.5% fatty-acid free BSA (Sigma) containing 0.1 mM cold oleic acid and 1 μCi 14C-oleic acid (PerkinElmer Life Sciences) for 4 h. […] Trapped 14CO2 on the alkalinized filter paper was measured as described (Li 2011). We measured lipogenesis as described (Yecies 2011), with the following modifications: hepatocytes were stimulated with 10 nM insulin in serum-free DMEM for 2 h, then labeled with 14C-acetate (PerkinElmer Life Sciences) for 2 h. […]
smiles,measurement,setting,value
CC(C)C[C@@H](C=O)NC(=O)[C@H](CC(C)C)NC(=O)[C@H](CC(C)C)NC(=O)OCc1ccccc1 [MG132] (Cbz-Leu-Leu-Leu-aldehyde),effect of N1-IC on Raptor protein under proteosomal inhibition,FAO hepatoma cells,independent
CO[C@H]1C[C@@H]2CC[C@@H](C)[C@@](O)(O2)C(=O)C(=O)N2CCCC[C@H]2C(=O)O[C@H]([C@H](C)C[C@@H]2CC[C@@H](O)[C@H](OC)C2)CC(=O)[C@H](C)/C=C(\C)[C@@H](O)[C@@H](OC)C(=O)[C@H](C)C[C@H](C)/C=C/C=C/C=C/1C [rapamycin],effect of rapamycin on glucose tolerance,N1-IC-transduced mice,mild glucose intolerance
C[C@@H]1C[C@@H]([C@H](O)CC2CC(=O)NC(=O)C2)C(=O)[C@@H](C)C1 [cycloheximide],effect of N1-IC on Raptor protein under protein synthesis inhibition,primary hepatocytes,fully reversed; also recorded: prevents
